From patent US20050148647A1, “Hemodialysis solutions and uses thereof” (priority 2003, published 2005)

Tests used:
[1] = in vivo; details: dog, plasma
Procedure: (§1) Supplementation with casein hydrolysate was evaluated in a dog dialysis model. Two dogs were dialyzed: a control animal underwent four hours of standard hemodialysis. The second animal was dialyzed with dialysate enriched with vitamin-free casein acid hydrolysate under otherwise identical conditions. The dogs were anesthetized and ventilated; venous access for dialysis was achieved via two peripheral venous lines, right femoral and left external jugular. A routine, bicarbonate-based dialysis solution, Centrisol™, was used with both animals and diluted with filtered water by the hemodialysis machine to the appropriate concentration. […] The animals were dialyzed for four hours with a blood flow rate of 300 ml/min and a dialysate flow rate of 500 ml/min. Plasma and dialysate samples were from both animals at t=0 and t=4 hours were analyzed for amino acid content. Additional samples were taken from the serum post-filter and from the dialysate immediately pre-filter.

[2] = dog dialysis model: hemodialysis with casein hydrolysate-enriched dialysate, plasma amino acid content; details: casein group, over the course of dialysis;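 note: anesthetized dogs on 4 h hemodialysis with bicarbonate dialysate, one enriched with vitamin-free casein acid hydrolysate, control animal on standard dialysis, plasma amino acids measured at 0 and 4 h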
Procedure: as §1

Row | SMILES | concentration at 0 h [1] [µM] | concentration at 4 h [1] [µM] | direction of change of plasma concentration of the amino acid (in words) [2]
1 | C[C@H](N)C(=O)O [alanine] | 658 | 712 | –
2 | CC(C)C[C@H](N)C(=O)O [leucine] | 126 | 290 | –
3 | N[C@@H](CS)C(=O)O [cysteine] | 8 | 12 | –
4 | N[C@@H](Cc1c[nH]cn1)C(=O)O [histidine] | 68 | 88 | –
5 | N[C@@H](CC(=O)O)C(=O)O [aspartate] | 2 | 12 | –
6 | N=C(N)NCCC[C@H](N)C(=O)O [arginine] | 132 | 148 | –
7 | CSCC[C@H](N)C(=O)O [methionine] | 44 | 86 | –
8 | NCCCC[C@H](N)C(=O)O [lysine] | 98 | 198 | –
9 | NCC(=O)O [glycine] | 306 | 260 | decreased
10 | CC[C@H](C)[C@H](N)C(=O)O [isoleucine] | 46 | 138 | –

Second part, the molecule after the results:

Row | concentration at 0 h [1] [µM] | concentration at 4 h [1] [µM] | direction of change of plasma concentration of the amino acid (in words) [2] | SMILES
11 | 154 | 154 | remained the same concentration | N[C@@H](CO)C(=O)O [serine]
12 | 52 | 52 | – | N[C@@H](Cc1c[nH]c2ccccc12)C(=O)O [tryptophan]
13 | 336 | 428 | – | O=C(O)[C@@H]1CCCN1 [proline]
14 | 118 | 242 | – | CC(C)[C@H](N)C(=O)O [valine]
15 | 34 | 82 | – | N[C@@H](Cc1ccccc1)C(=O)O [phenylalanine]
16 | 108 | 128 | – | C[C@@H](O)[C@H](N)C(=O)O [threonine]
17 | 28 | 48 | – | N[C@@H](Cc1ccc(O)cc1)C(=O)O [tyrosine]
